From PubChem BioAssay (NCI)
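How tested: cells in 96-well plates exposed to compound for 48 hours at five concentrations. At the TGI there is no net growth.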

Tested on: SF-268 CNS
Assay: growth of human tumour cells (NCI), 48 h

Row | SMILES | TGI
1 | CN(C)C1C(=O)C(C(=O)NCN2CCCC2)=C(O)C2(O)C(=O)C3=C(O)c4c(O)cccc4C(C)(O)C3CC12 (stereo not given) | > 100 µM
2 | O=C1C(Cl)C(c2cc3cc(Br)ccc3nc2Cl)N1c1ccc(F)c(Cl)c1 (stereo not given) | 14.2 µM
3 | COCOc1cc(OCOC)cc(C(=O)Oc2ccccc2)c1 | > 100 µM

Tested on: SF-539 CNS
Assay: growth of human tumour cells (NCI), 48 h

Row | SMILES | TGI
4 | O=C(CSc1nc2ccccc2c2ccccc12)c1ccccc1 | > 100 µM
5 | O=C1C(Cl)C(c2cc3cc(Br)ccc3nc2Cl)N1c1ccc(F)c(Cl)c1 (stereo not given) | 3.66 µM
6 | COCOc1cc(OCOC)cc(C(=O)Oc2ccccc2)c1 | > 100 µM

Tested on: IGROV1 ovarian
Assay: growth of human tumour cells (NCI), 48 h

Row | SMILES | TGI
7 | CC#CC#C/C=C1/O[C@]2(CCC(OC(=O)CC(C)C)CO2)[C@@H]2O[C@H]12 (stereo not given in full) | > 100 µM
8 | O=C(CSc1nc2ccccc2c2ccccc12)c1ccccc1 | > 100 µM
9 | CN(C)C1C(=O)C(C(=O)NCN2CCCC2)=C(O)C2(O)C(=O)C3=C(O)c4c(O)cccc4C(C)(O)C3CC12 (stereo not given) | > 100 µM
10 | O=C1C(Cl)C(c2cc3cc(Br)ccc3nc2Cl)N1c1ccc(F)c(Cl)c1 (stereo not given) | 2.14 µM
11 | COCOc1cc(OCOC)cc(C(=O)Oc2ccccc2)c1 | > 100 µM

Tested on: A549 NSCLC
Assay: growth of human tumour cells (NCI), 48 h

Row | SMILES | TGI
12 | CC#CC#C/C=C1/O[C@]2(CCC(OC(=O)CC(C)C)CO2)[C@@H]2O[C@H]12 (stereo not given in full) | > 100 µM
13 | O=C(CSc1nc2ccccc2c2ccccc12)c1ccccc1 | > 100 µM
14 | CN(C)C1C(=O)C(C(=O)NCN2CCCC2)=C(O)C2(O)C(=O)C3=C(O)c4c(O)cccc4C(C)(O)C3CC12 (stereo not given) | > 100 µM
15 | O=C1C(Cl)C(c2cc3cc(Br)ccc3nc2Cl)N1c1ccc(F)c(Cl)c1 (stereo not given) | 43.5 µM
16 | COCOc1cc(OCOC)cc(C(=O)Oc2ccccc2)c1 | > 100 µM

Tested on: NCI/ADR-RES ovarian
Assay: growth of human tumour cells (NCI), 48 h

Row | SMILES | TGI
17 | CC#CC#C/C=C1/O[C@]2(CCC(OC(=O)CC(C)C)CO2)[C@@H]2O[C@H]12 (stereo not given in full) | 64.4 µM
18 | O=C(CSc1nc2ccccc2c2ccccc12)c1ccccc1 | > 100 µM
19 | CN(C)C1C(=O)C(C(=O)NCN2CCCC2)=C(O)C2(O)C(=O)C3=C(O)c4c(O)cccc4C(C)(O)C3CC12 (stereo not given) | > 100 µM
20 | O=C1C(Cl)C(c2cc3cc(Br)ccc3nc2Cl)N1c1ccc(F)c(Cl)c1 (stereo not given) | 29.8 µM
21 | COCOc1cc(OCOC)cc(C(=O)Oc2ccccc2)c1 | > 100 µM

Tested on: 786-0 renal
Assay: growth of human tumour cells (NCI), 48 h

Row | SMILES | TGI
22 | CC#CC#C/C=C1/O[C@]2(CCC(OC(=O)CC(C)C)CO2)[C@@H]2O[C@H]12 (stereo not given in full) | 49.3 µM
23 | O=C(CSc1nc2ccccc2c2ccccc12)c1ccccc1 | > 100 µM
24 | CN(C)C1C(=O)C(C(=O)NCN2CCCC2)=C(O)C2(O)C(=O)C3=C(O)c4c(O)cccc4C(C)(O)C3CC12 (stereo not given) | > 100 µM
25 | O=C1C(Cl)C(c2cc3cc(Br)ccc3nc2Cl)N1c1ccc(F)c(Cl)c1 (stereo not given) | 2.25 µM
26 | COCOc1cc(OCOC)cc(C(=O)Oc2ccccc2)c1 | > 100 µM

Tested on: LOX IMVI melanoma
Assay: growth of human tumour cells (NCI), 48 h

Row | SMILES | TGI
27 | CC#CC#C/C=C1/O[C@]2(CCC(OC(=O)CC(C)C)CO2)[C@@H]2O[C@H]12 (stereo not given in full) | 35.9 µM
28 | O=C(CSc1nc2ccccc2c2ccccc12)c1ccccc1 | > 100 µM
29 | CN(C)C1C(=O)C(C(=O)NCN2CCCC2)=C(O)C2(O)C(=O)C3=C(O)c4c(O)cccc4C(C)(O)C3CC12 (stereo not given) | > 100 µM
30 | COCOc1cc(OCOC)cc(C(=O)Oc2ccccc2)c1 | > 100 µM

Tested on: UACC-62 melanoma
Assay: growth of human tumour cells (NCI), 48 h

Row | SMILES | TGI
31 | CC#CC#C/C=C1/O[C@]2(CCC(OC(=O)CC(C)C)CO2)[C@@H]2O[C@H]12 (stereo not given in full) | 66.6 µM
32 | O=C(CSc1nc2ccccc2c2ccccc12)c1ccccc1 | > 100 µM
33 | CN(C)C1C(=O)C(C(=O)NCN2CCCC2)=C(O)C2(O)C(=O)C3=C(O)c4c(O)cccc4C(C)(O)C3CC12 (stereo not given) | > 100 µM
34 | O=C1C(Cl)C(c2cc3cc(Br)ccc3nc2Cl)N1c1ccc(F)c(Cl)c1 (stereo not given) | 21.2 µM
35 | COCOc1cc(OCOC)cc(C(=O)Oc2ccccc2)c1 | > 100 µM

Tested on: PC-3 prostate
Assay: growth of human tumour cells (NCI), 48 h

Row | SMILES | TGI
36 | CC#CC#C/C=C1/O[C@]2(CCC(OC(=O)CC(C)C)CO2)[C@@H]2O[C@H]12 (stereo not given in full) | 72.5 µM
37 | O=C(CSc1nc2ccccc2c2ccccc12)c1ccccc1 | > 100 µM
38 | CN(C)C1C(=O)C(C(=O)NCN2CCCC2)=C(O)C2(O)C(=O)C3=C(O)c4c(O)cccc4C(C)(O)C3CC12 (stereo not given) | > 100 µM
39 | O=C1C(Cl)C(c2cc3cc(Br)ccc3nc2Cl)N1c1ccc(F)c(Cl)c1 (stereo not given) | 34.2 µM
40 | COCOc1cc(OCOC)cc(C(=O)Oc2ccccc2)c1 | > 100 µM

Tested on: HL-60(TB) leukemia
Assay: growth of human tumour cells (NCI), 48 h

Row | SMILES | TGI
41 | CC#CC#C/C=C1/O[C@]2(CCC(OC(=O)CC(C)C)CO2)[C@@H]2O[C@H]12 (stereo not given in full) | 42.9 µM
42 | O=C(CSc1nc2ccccc2c2ccccc12)c1ccccc1 | > 100 µM
43 | CN(C)C1C(=O)C(C(=O)NCN2CCCC2)=C(O)C2(O)C(=O)C3=C(O)c4c(O)cccc4C(C)(O)C3CC12 (stereo not given) | > 100 µM
44 | O=C1C(Cl)C(c2cc3cc(Br)ccc3nc2Cl)N1c1ccc(F)c(Cl)c1 (stereo not given) | 18.6 µM
45 | COCOc1cc(OCOC)cc(C(=O)Oc2ccccc2)c1 | > 100 µM

Tested on: UACC-257 melanoma
Assay: growth of human tumour cells (NCI), 48 h

Row | SMILES | TGI
46 | CC#CC#C/C=C1/O[C@]2(CCC(OC(=O)CC(C)C)CO2)[C@@H]2O[C@H]12 (stereo not given in full) | > 100 µM
47 | O=C(CSc1nc2ccccc2c2ccccc12)c1ccccc1 | > 100 µM
48 | CN(C)C1C(=O)C(C(=O)NCN2CCCC2)=C(O)C2(O)C(=O)C3=C(O)c4c(O)cccc4C(C)(O)C3CC12 (stereo not given) | > 100 µM
49 | O=C1C(Cl)C(c2cc3cc(Br)ccc3nc2Cl)N1c1ccc(F)c(Cl)c1 (stereo not given) | 25.7 µM
50 | COCOc1cc(OCOC)cc(C(=O)Oc2ccccc2)c1 | > 100 µM

Tested on: SNB-19 CNS
Assay: growth of human tumour cells (NCI), 48 h

Row | SMILES | TGI
51 | CC#CC#C/C=C1/O[C@]2(CCC(OC(=O)CC(C)C)CO2)[C@@H]2O[C@H]12 (stereo not given in full) | > 100 µM
52 | O=C(CSc1nc2ccccc2c2ccccc12)c1ccccc1 | > 100 µM
53 | CN(C)C1C(=O)C(C(=O)NCN2CCCC2)=C(O)C2(O)C(=O)C3=C(O)c4c(O)cccc4C(C)(O)C3CC12 (stereo not given) | > 100 µM
54 | O=C1C(Cl)C(c2cc3cc(Br)ccc3nc2Cl)N1c1ccc(F)c(Cl)c1 (stereo not given) | 23.1 µM
55 | COCOc1cc(OCOC)cc(C(=O)Oc2ccccc2)c1 | > 100 µM

Tested on: CCRF-CEM leukemia
Assay: growth of human tumour cells (NCI), 48 h

Row | SMILES | TGI
56 | CC#CC#C/C=C1/O[C@]2(CCC(OC(=O)CC(C)C)CO2)[C@@H]2O[C@H]12 (stereo not given in full) | 27.5 µM
57 | CN(C)C1C(=O)C(C(=O)NCN2CCCC2)=C(O)C2(O)C(=O)C3=C(O)c4c(O)cccc4C(C)(O)C3CC12 (stereo not given) | > 100 µM

Tested on: OVCAR-3 ovarian
Assay: growth of human tumour cells (NCI), 48 h

Row | SMILES | TGI
58 | CC#CC#C/C=C1/O[C@]2(CCC(OC(=O)CC(C)C)CO2)[C@@H]2O[C@H]12 (stereo not given in full) | 52.3 µM
59 | O=C(CSc1nc2ccccc2c2ccccc12)c1ccccc1 | > 100 µM
60 | CN(C)C1C(=O)C(C(=O)NCN2CCCC2)=C(O)C2(O)C(=O)C3=C(O)c4c(O)cccc4C(C)(O)C3CC12 (stereo not given) | > 100 µM
61 | O=C1C(Cl)C(c2cc3cc(Br)ccc3nc2Cl)N1c1ccc(F)c(Cl)c1 (stereo not given) | 12.8 µM
62 | COCOc1cc(OCOC)cc(C(=O)Oc2ccccc2)c1 | > 100 µM

Tested on: RPMI-8226 leukemia
Assay: growth of human tumour cells (NCI), 48 h

Row | SMILES | TGI
63 | CC#CC#C/C=C1/O[C@]2(CCC(OC(=O)CC(C)C)CO2)[C@@H]2O[C@H]12 (stereo not given in full) | 50.3 µM
64 | O=C(CSc1nc2ccccc2c2ccccc12)c1ccccc1 | > 100 µM
65 | CN(C)C1C(=O)C(C(=O)NCN2CCCC2)=C(O)C2(O)C(=O)C3=C(O)c4c(O)cccc4C(C)(O)C3CC12 (stereo not given) | > 100 µM
66 | O=C1C(Cl)C(c2cc3cc(Br)ccc3nc2Cl)N1c1ccc(F)c(Cl)c1 (stereo not given) | 5.23 µM
67 | COCOc1cc(OCOC)cc(C(=O)Oc2ccccc2)c1 | > 100 µM

Tested on: OVCAR-4 ovarian
Assay: growth of human tumour cells (NCI), 48 h

Row | SMILES | TGI
68 | CC#CC#C/C=C1/O[C@]2(CCC(OC(=O)CC(C)C)CO2)[C@@H]2O[C@H]12 (stereo not given in full) | > 100 µM
69 | O=C(CSc1nc2ccccc2c2ccccc12)c1ccccc1 | > 100 µM
70 | CN(C)C1C(=O)C(C(=O)NCN2CCCC2)=C(O)C2(O)C(=O)C3=C(O)c4c(O)cccc4C(C)(O)C3CC12 (stereo not given) | > 100 µM
